Assay results taken from patent publication US11814372B2, “Agonists of EPHA and their uses” (CASE WESTERN RESERVE UNIVERSITY, priority 2017, dated 2023).

Tests used:
Format in all cases: cell-based
EphB4 = biological target: T1, EphB4 (Homo sapiens, UniProt P54760); test: Activation of endogenous EphB4 in HEK 293 vector control cells
T1 construct: host or cells: HEK 293 vector control cells
T1 sequence (P54760 16-987): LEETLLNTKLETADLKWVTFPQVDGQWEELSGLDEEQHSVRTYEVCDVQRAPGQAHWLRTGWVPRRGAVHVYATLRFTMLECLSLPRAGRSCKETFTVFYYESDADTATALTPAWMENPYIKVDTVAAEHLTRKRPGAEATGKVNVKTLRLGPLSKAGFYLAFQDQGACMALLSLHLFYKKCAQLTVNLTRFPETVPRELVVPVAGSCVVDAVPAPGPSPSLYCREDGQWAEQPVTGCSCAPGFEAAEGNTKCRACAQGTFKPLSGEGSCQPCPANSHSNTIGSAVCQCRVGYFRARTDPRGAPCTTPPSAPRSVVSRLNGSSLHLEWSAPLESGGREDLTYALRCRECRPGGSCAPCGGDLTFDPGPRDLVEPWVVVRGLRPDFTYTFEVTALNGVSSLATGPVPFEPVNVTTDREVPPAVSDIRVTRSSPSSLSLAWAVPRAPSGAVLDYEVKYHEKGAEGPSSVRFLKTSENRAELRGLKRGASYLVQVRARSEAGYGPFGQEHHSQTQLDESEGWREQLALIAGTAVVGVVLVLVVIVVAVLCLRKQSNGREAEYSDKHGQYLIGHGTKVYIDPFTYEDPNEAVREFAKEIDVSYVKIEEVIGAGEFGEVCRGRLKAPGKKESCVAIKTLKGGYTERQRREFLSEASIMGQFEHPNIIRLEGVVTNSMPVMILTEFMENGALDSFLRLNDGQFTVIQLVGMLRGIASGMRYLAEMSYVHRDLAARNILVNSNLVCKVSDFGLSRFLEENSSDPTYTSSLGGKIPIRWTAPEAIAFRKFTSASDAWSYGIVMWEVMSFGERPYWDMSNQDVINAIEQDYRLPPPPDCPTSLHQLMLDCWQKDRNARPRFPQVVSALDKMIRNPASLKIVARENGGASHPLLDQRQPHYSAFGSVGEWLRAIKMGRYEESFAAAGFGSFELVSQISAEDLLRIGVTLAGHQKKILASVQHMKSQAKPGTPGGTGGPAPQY

ERK1/2 and Akt = test: Inhibition of ERK1/2 and Akt activation in A172-A2 glioma cells (immunoblot); conditions: 50 μM and 100 μM, 90 minutes
Description: Cells were plated in 24-well dishes at a density of 100,000 cells/well and grown for 24 hours prior to stimulation with appropriate compounds and ephrins for the given amounts of time. Compounds were prepared in DMSO at 500 times the final concentrations and 0.2% DMSO was used as vehicle control. Following treatment, cells were lysed directly in SDS Gel Loading Buffer and immunoblotted as described previously. […] For immunoprecipitation, 300,000 cells/well were plated in 6-well dishes and lysed in modified RIPA Buffer (20 mM Tris-HCl pH 7.4, 20 mM NaF, 150 mM NaCl, 10% glycerol, 0.1% SDS, 0.5% DCA, 2 mM EDTA, 1% Triton X-100) following treatment. Either 10 ag of ephrin-A1-Fc, or 4 mg of EphA2 mouse monoclonal antibody (Clone D7, Millipore) were used, and mouse IgG was used as a negative control for EphA2 IP. […] We first tested this by utilizing the A172 glioma cells engineered to overexpress EphA2 receptor (A172-A2).

EphA2 = EphA2 (Homo sapiens, UniProt P29317); test: EphA2 activation in MDA-231-A2 cells (pEphA/B immunoblot, EphA2 immunoprecipitation); set-up: expressed in transfected cells; host or cells: MDA-MB-231 (MDA-231-A2), HEK 293 (HEK 293-A2), A172 (A172-A2), U373 (U373-A2)
EphA2, sequence (P29317 24-976): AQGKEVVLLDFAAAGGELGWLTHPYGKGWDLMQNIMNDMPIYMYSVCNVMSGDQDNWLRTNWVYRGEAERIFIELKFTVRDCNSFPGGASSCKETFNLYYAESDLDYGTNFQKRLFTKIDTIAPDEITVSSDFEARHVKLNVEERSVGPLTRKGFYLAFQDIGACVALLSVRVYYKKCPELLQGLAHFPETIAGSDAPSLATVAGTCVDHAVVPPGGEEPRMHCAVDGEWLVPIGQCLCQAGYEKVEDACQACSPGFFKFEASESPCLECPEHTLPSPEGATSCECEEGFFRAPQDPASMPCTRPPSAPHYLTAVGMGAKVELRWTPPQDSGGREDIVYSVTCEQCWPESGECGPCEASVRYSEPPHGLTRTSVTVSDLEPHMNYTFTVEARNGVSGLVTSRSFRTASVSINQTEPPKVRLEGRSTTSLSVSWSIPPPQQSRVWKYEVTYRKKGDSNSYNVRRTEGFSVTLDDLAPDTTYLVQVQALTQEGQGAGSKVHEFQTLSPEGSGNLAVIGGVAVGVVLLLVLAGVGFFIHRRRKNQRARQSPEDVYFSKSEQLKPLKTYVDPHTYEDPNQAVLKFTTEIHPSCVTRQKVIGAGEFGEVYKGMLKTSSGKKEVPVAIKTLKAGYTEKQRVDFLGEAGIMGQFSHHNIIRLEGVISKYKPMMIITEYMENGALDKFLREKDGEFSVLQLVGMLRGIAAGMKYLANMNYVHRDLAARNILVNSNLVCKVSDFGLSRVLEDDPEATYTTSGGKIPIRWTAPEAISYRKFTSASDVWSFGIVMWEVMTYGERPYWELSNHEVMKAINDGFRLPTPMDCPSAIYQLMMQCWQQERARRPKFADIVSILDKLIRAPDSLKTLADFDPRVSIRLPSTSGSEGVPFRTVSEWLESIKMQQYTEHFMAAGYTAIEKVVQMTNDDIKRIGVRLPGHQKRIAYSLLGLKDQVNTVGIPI
Description: Cells were plated in 24-well dishes at a density of 100,000 cells/well and grown for 24 hours prior to stimulation with appropriate compounds and ephrins for the given amounts of time. Compounds were prepared in DMSO at 500 times the final concentrations and 0.2% DMSO was used as vehicle control. Following treatment, cells were lysed directly in SDS Gel Loading Buffer and immunoblotted as described previously. Immunoprecipitation and immunofluorescence staining was performed as described. For immunoprecipitation, 300,000 cells/well were plated in 6-well dishes and lysed in modified RIPA Buffer (20 mM Tris-HCl pH 7.4, 20 mM NaF, 150 mM NaCl, 10% glycerol, 0.1% SDS, 0.5% DCA, 2 mM EDTA, 1% Triton X-100) following treatment. Either […] of ephrin-A1-Fc, or […] of EphA2 mouse monoclonal antibody (Clone D7, Millipore) were used, and mouse IgG was used as a negative control for EphA2 IP. To identify small molecule agonists for EphA2, we took a structure-based in silico screening approach. […] This notion was confirmed recently by determination of the crystal structure of the EphA2/ephrin-A1 complex (FIG. 1B). The size falls in the range of common drugs, making EphA2 LBD a desirable target for drug discovery. Toward this end, we initiated in silico screening to search for small molecules that interact favorably with the ligand-binding pocket of EphA2 derived from molecular modeling before the crystal structure became available. Multiple conformations for each structure were generated with OMEGA (OpenEye) and each conformation was docked individually using DOCK. Our initial screening of over 750,000 compounds identified a number of small molecules that could potentially interact with the ligand-binding pocket. The commercially available top-scoring compounds were screened for their ability to induce EphA2 activation in MDAMB-231 breast cancer cells. Because MDA-MB-231 cells express endogenous EphA2 as well as other Eph receptors, including EphA1, we overexpressed EphA2 in order to minimize the contribution from other Eph receptors in our analysis. […] Total cell lysates were probed with a previously described antibody that recognizes the activated Eph receptors.

[1] = MDA-231-A2 cells, single 50 μM dose

COc1cc2nc(N3CCN(C(=O)C4COc5ccccc5O4)CC3)nc(N)c2cc1OC (centres unmarked) [doxazosin]
endogenous EphB4 activation (EphB4): not activated | inhibition of Akt and ERK1/2 activation (ERK1/2 and Akt): significant inhibition of Akt and ERK1/2 activation | EphA2 activation after phenoxybenzamine pretreatment versus no pretreatment (EphA2; MDA-231-A2 cells pretreated with 1 μM phenoxybenzamine, then 1 hour treatment): No difference in EphA2 activation | EphA2 activation, screening of top-scoring compounds (EphA2; MDA-231-A2 cells, compounds at 50 µM, 30 minutes): activated EphA2 to the greatest extent | EphA2 level after treatment (EphA2; MDA-231-A2 cells, high doses): degradation of EphA2 | EphA2 activation, dose-response (EphA2; MDA-231-A2 cells, multiple doses, 30 minutes): dose-dependent manner | earliest time of significant EphA2 activation (EphA2; [1]): 5 min | time of peak EphA2 activation (EphA2; [1]): around 30 min
